Assay results taken from PubChem BioAssay (NCI).
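Test compounds were applied to cells in 96-well plates for 48 hours at 5 doses. GI50 marks 50% less growth. Definition used: TGI = concentration required for complete inhibition of growth.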 *1 amine or outer side, *2 acyl side, *3 side chain or, on linkers, in order; H or OH if unused. Where a SMILES comes first, the peptide text is derived from it. Bridges are numbered along the chain shown (N, C = ends). [ ]: non-standard residue; d: D form. Adda = CO[C@@H](Cc1ccccc1)[C@@H](C)/C=C(C)/C=C/[C@H](N[*:1])[C@H](C)C(=O)[*:2]; dAsp(3S-Me) = C[C@H](C(=O)[*:3])[C@@H](N[*:1])C(=O)[*:2]; d(γGlu) = O=C(O)[C@@H](CCC(=O)[*:2])N[*:1]; NMeDha = C=C(NC)C(=O)O

What was measured:
Test in all cases: NCI anticancer screen, dose series, 48 h
786-0 renal = tested on: 786-0 renal
A549 NSCLC = tested on: A549 NSCLC
BT-549 breast = tested on: BT-549 breast
CAKI-1 renal = tested on: CAKI-1 renal
COLO 205 colon = tested on: COLO 205 colon
DU-145 prostate = tested on: DU-145 prostate
EKVX NSCLC = tested on: EKVX NSCLC
HCC-2998 colon = tested on: HCC-2998 colon
HCT-116 colon = tested on: HCT-116 colon
HCT-15 colon = tested on: HCT-15 colon
HL-60(TB) leukemia = tested on: HL-60(TB) leukemia
HOP-62 NSCLC = tested on: HOP-62 NSCLC
HOP-92 NSCLC = tested on: HOP-92 NSCLC
HS 578T breast = tested on: HS 578T breast
HT29 colon = tested on: HT29 colon
IGROV1 ovarian = tested on: IGROV1 ovarian
K-562 leukemia = tested on: K-562 leukemia
KM12 colon = tested on: KM12 colon
LOX IMVI melanoma = tested on: LOX IMVI melanoma
M14 melanoma = tested on: M14 melanoma
MCF7 breast = tested on: MCF7 breast
MDA-MB-231 breast = tested on: MDA-MB-231 breast
MDA-MB-435 = tested on: MDA-MB-435
MOLT-4 leukemia = tested on: MOLT-4 leukemia
NCI-H226 lung = tested on: NCI-H226 lung
NCI-H23 lung = tested on: NCI-H23 lung
NCI-H460 lung = tested on: NCI-H460 lung
NCI-H522 lung = tested on: NCI-H522 lung
NCI/ADR-RES ovarian = tested on: NCI/ADR-RES ovarian
OVCAR-3 ovarian = tested on: OVCAR-3 ovarian
OVCAR-4 ovarian = tested on: OVCAR-4 ovarian
OVCAR-5 ovarian = tested on: OVCAR-5 ovarian
OVCAR-8 ovarian = tested on: OVCAR-8 ovarian
PC-3 prostate = tested on: PC-3 prostate
RPMI-8226 leukemia = tested on: RPMI-8226 leukemia
RXF 393 renal = tested on: RXF 393 renal
SF-268 CNS = tested on: SF-268 CNS
SF-295 CNS = tested on: SF-295 CNS
SF-539 CNS = tested on: SF-539 CNS
SK-MEL-2 melanoma = tested on: SK-MEL-2 melanoma
SK-MEL-28 melanoma = tested on: SK-MEL-28 melanoma
SK-MEL-5 melanoma = tested on: SK-MEL-5 melanoma
SK-OV-3 ovarian = tested on: SK-OV-3 ovarian
SN12C renal = tested on: SN12C renal
SNB-19 CNS = tested on: SNB-19 CNS
SNB-75 CNS = tested on: SNB-75 CNS
SR leukemia = tested on: SR leukemia
SW-620 colon = tested on: SW-620 colon
T-47D breast = tested on: T-47D breast
TK-10 renal = tested on: TK-10 renal
UACC-257 melanoma = tested on: UACC-257 melanoma
UACC-62 melanoma = tested on: UACC-62 melanoma
UO-31 renal = tested on: UO-31 renal
ACHN renal = tested on: ACHN renal
CCRF-CEM leukemia = tested on: CCRF-CEM leukemia
MALME-3M melanoma = tested on: MALME-3M melanoma
U251 CNS = tested on: U251 CNS

C=C1C(=O)N[C@H](C)C(=O)N[C@@H](CC(C)C)C(=O)N[C@@H](C(=O)O)[C@H](C)C(=O)N[C@@H](CCCN=C(N)N)C(=O)N[C@@H](/C=C/C(C)=C/[C@H](C)[C@H](Cc2ccccc2)OC)[C@H](C)C(=O)N[C@@H](C(=O)O)CCC(=O)N1C (R[Adda][d(γGlu)][NMeDha][dA]L[dAsp(3S-Me)]-OH; lactam N-7)
GI50 (786-0 renal): > 5 µM | TGI (786-0 renal): > 5 µM | GI50 (A549 NSCLC): 4.68 µM | TGI (A549 NSCLC): > 5 µM | GI50 (BT-549 breast): > 5 µM | TGI (BT-549 breast): > 5 µM | GI50 (CAKI-1 renal): > 5 µM | TGI (CAKI-1 renal): > 5 µM | GI50 (COLO 205 colon): > 5 µM | TGI (COLO 205 colon): > 5 µM | GI50 (DU-145 prostate): > 5 µM | TGI (DU-145 prostate): > 5 µM | GI50 (EKVX NSCLC): > 5 µM | TGI (EKVX NSCLC): > 5 µM | GI50 (HCC-2998 colon): > 5 µM | TGI (HCC-2998 colon): > 5 µM | GI50 (HCT-116 colon): > 5 µM | TGI (HCT-116 colon): > 5 µM | GI50 (HCT-15 colon): > 5 µM | TGI (HCT-15 colon): > 5 µM | GI50 (HL-60(TB) leukemia): > 5 µM | TGI (HL-60(TB) leukemia): > 5 µM | GI50 (HOP-62 NSCLC): > 5 µM | TGI (HOP-62 NSCLC): > 5 µM | GI50 (HOP-92 NSCLC): > 5 µM | TGI (HOP-92 NSCLC): > 5 µM | GI50 (HS 578T breast): > 5 µM | TGI (HS 578T breast): > 5 µM | GI50 (HT29 colon): > 5 µM | TGI (HT29 colon): > 5 µM | GI50 (IGROV1 ovarian): 0.305 µM | TGI (IGROV1 ovarian): > 5 µM | GI50 (K-562 leukemia): > 5 µM | TGI (K-562 leukemia): > 5 µM | GI50 (KM12 colon): > 5 µM | TGI (KM12 colon): > 5 µM | GI50 (LOX IMVI melanoma): > 5 µM | TGI (LOX IMVI melanoma): > 5 µM | GI50 (M14 melanoma): > 5 µM | TGI (M14 melanoma): > 5 µM | GI50 (MCF7 breast): > 5 µM | TGI (MCF7 breast): > 5 µM | GI50 (MDA-MB-231 breast): > 5 µM | TGI (MDA-MB-231 breast): > 5 µM | GI50 (MDA-MB-435): > 5 µM | TGI (MDA-MB-435): > 5 µM | GI50 (MOLT-4 leukemia): > 5 µM | TGI (MOLT-4 leukemia): > 5 µM | GI50 (NCI-H226 lung): > 5 µM | TGI (NCI-H226 lung): > 5 µM | GI50 (NCI-H23 lung): > 5 µM | TGI (NCI-H23 lung): > 5 µM | GI50 (NCI-H460 lung): > 5 µM | TGI (NCI-H460 lung): > 5 µM | GI50 (NCI-H522 lung): 4.94 µM | TGI (NCI-H522 lung): > 5 µM | GI50 (NCI/ADR-RES ovarian): > 5 µM | TGI (NCI/ADR-RES ovarian): > 5 µM | GI50 (OVCAR-3 ovarian): > 5 µM | TGI (OVCAR-3 ovarian): > 5 µM | GI50 (OVCAR-4 ovarian): > 5 µM | TGI (OVCAR-4 ovarian): > 5 µM | GI50 (OVCAR-5 ovarian): > 5 µM | TGI (OVCAR-5 ovarian): > 5 µM | GI50 (OVCAR-8 ovarian): > 5 µM | TGI (OVCAR-8 ovarian): > 5 µM | GI50 (PC-3 prostate): > 5 µM | TGI (PC-3 prostate): > 5 µM | GI50 (RPMI-8226 leukemia): > 5 µM | TGI (RPMI-8226 leukemia): > 5 µM | GI50 (RXF 393 renal): > 5 µM | TGI (RXF 393 renal): > 5 µM | GI50 (SF-268 CNS): > 5 µM | TGI (SF-268 CNS): > 5 µM | GI50 (SF-295 CNS): > 5 µM | TGI (SF-295 CNS): > 5 µM | GI50 (SF-539 CNS): > 5 µM | TGI (SF-539 CNS): > 5 µM | GI50 (SK-MEL-2 melanoma): > 5 µM | TGI (SK-MEL-2 melanoma): > 5 µM | GI50 (SK-MEL-28 melanoma): > 5 µM | TGI (SK-MEL-28 melanoma): > 5 µM | GI50 (SK-MEL-5 melanoma): > 5 µM | TGI (SK-MEL-5 melanoma): > 5 µM | GI50 (SK-OV-3 ovarian): > 5 µM | TGI (SK-OV-3 ovarian): > 5 µM | GI50 (SN12C renal): > 5 µM | TGI (SN12C renal): > 5 µM | GI50 (SNB-19 CNS): > 5 µM | TGI (SNB-19 CNS): > 5 µM | GI50 (SNB-75 CNS): > 5 µM | TGI (SNB-75 CNS): > 5 µM | GI50 (SR leukemia): 1.19 µM | TGI (SR leukemia): > 5 µM | GI50 (SW-620 colon): > 5 µM | TGI (SW-620 colon): > 5 µM | GI50 (T-47D breast): > 5 µM | TGI (T-47D breast): > 5 µM | GI50 (TK-10 renal): > 5 µM | TGI (TK-10 renal): > 5 µM | GI50 (UACC-257 melanoma): > 5 µM | TGI (UACC-257 melanoma): > 5 µM | GI50 (UACC-62 melanoma): > 5 µM | TGI (UACC-62 melanoma): > 5 µM | GI50 (UO-31 renal): > 5 µM | TGI (UO-31 renal): > 5 µM

N#C/C(=C\c1ccccc1)c1nc(-c2cc3ccccc3oc2=O)cs1
TGI (786-0 renal): > 100 µM | TGI (A549 NSCLC): > 100 µM | TGI (ACHN renal): > 100 µM | TGI (BT-549 breast): 77.1 µM | TGI (CAKI-1 renal): > 100 µM | TGI (CCRF-CEM leukemia): > 100 µM | TGI (COLO 205 colon): > 100 µM | TGI (DU-145 prostate): > 100 µM | TGI (EKVX NSCLC): > 100 µM | TGI (HCC-2998 colon): > 100 µM | TGI (HCT-116 colon): > 100 µM | TGI (HCT-15 colon): > 100 µM | TGI (HL-60(TB) leukemia): > 100 µM | TGI (HOP-62 NSCLC): > 100 µM | TGI (HOP-92 NSCLC): > 100 µM | TGI (HS 578T breast): 82.1 µM | TGI (HT29 colon): > 100 µM | TGI (IGROV1 ovarian): > 100 µM | TGI (K-562 leukemia): > 100 µM | TGI (KM12 colon): > 100 µM | TGI (LOX IMVI melanoma): > 100 µM | TGI (M14 melanoma): > 100 µM | TGI (MALME-3M melanoma): > 100 µM | TGI (MCF7 breast): > 100 µM | TGI (MDA-MB-231 breast): > 100 µM | TGI (MDA-MB-435): > 100 µM | TGI (MOLT-4 leukemia): > 100 µM | TGI (NCI-H226 lung): > 100 µM | TGI (NCI-H460 lung): > 100 µM | TGI (NCI-H522 lung): > 100 µM | TGI (NCI/ADR-RES ovarian): > 100 µM | TGI (OVCAR-4 ovarian): > 100 µM | TGI (OVCAR-5 ovarian): > 100 µM | TGI (OVCAR-8 ovarian): > 100 µM | TGI (PC-3 prostate): > 100 µM | TGI (RPMI-8226 leukemia): > 100 µM | TGI (RXF 393 renal): > 100 µM | TGI (SF-268 CNS): > 100 µM | TGI (SF-295 CNS): > 100 µM | TGI (SF-539 CNS): > 100 µM | TGI (SK-MEL-2 melanoma): > 100 µM | TGI (SK-MEL-28 melanoma): > 100 µM | TGI (SK-MEL-5 melanoma): > 100 µM | TGI (SK-OV-3 ovarian): > 100 µM | TGI (SN12C renal): > 100 µM | TGI (SNB-19 CNS): > 100 µM | TGI (SNB-75 CNS): > 100 µM | TGI (SR leukemia): > 100 µM | TGI (SW-620 colon): > 100 µM | TGI (T-47D breast): > 100 µM | TGI (TK-10 renal): > 100 µM | TGI (U251 CNS): > 100 µM | TGI (UACC-257 melanoma): > 100 µM | TGI (UACC-62 melanoma): > 100 µM | TGI (UO-31 renal): > 100 µM
